Laboratory results from patent publication US20060190186A1, “Viral polymerase and modulation thereof” (Melbourne Health, priority 2003, published 2006).
pIC50: −log10 of the molar value.

Tests used:
[1] = tested on: HBV precore mutant (G1896A); test: Antiviral testing: HBV replicative intermediates by Southern blot in Huh7 cells transfected with HBV plasmid (precore mutant); format: cell-based; details: Hepatitis B virus, Huh-7
Excerpt: (§1) The plasmid containing 1.3×HBV genome in the vector pBlueBac4.5 was used as the infectious HBV clone. This clone already had the precore mutation at G1896A. The point mutation were created by site directed mutagenesis using the commercial kits according to the manufacturers specifications (QuikChange, Stratagene). A HBV recombinant encoding the reverse transcriptase mutations rtS85A was created. The nucleotide sequence of the plasmid and the point mutations generated by site directed mutagenesis were confirmed by sequencing using the ABI Prism Big Dye Terminator Cycle Sequencing Ready Reaction Kit according to the manufacturer's specifications (Perkin Elmer, Cetus Norwalk, Conn.).
(§2) Huh7 cells were seeded at approximately 20-40% confluency and then were grown for 16-24 hours before transfection. Plasmid DNA containing HBV encoding specific mutations was transfected using Fugene according to the manufacturers protocols.
ADV and LMV were resuspended in sterile water, aliquoted, and frozen at −20° C. to avoid repeated freezing and thawing of the drug. […]
HBV core particles were isolated from the cytoplasmic fraction of Huh7 cells lysis buffer which includes 0.5% w/v NP-40. […] After southern blot analysis a BioRad Phosphoimager and the Quantity One Analysis software (BioRad, Hecules Calif.) was used to analyze suitable exposures of Southern blots. […]

[2] = tested on: recombinant HBV encoding the mutant rtS85A; test: Antiviral testing: HBV replicative intermediates by Southern blot in Huh7 cells transfected with HBV plasmid encoding rtS85A; format: cell-based, hepatitis B virus; details: for pIC50: Hepatitis B virus, Huh-7
Excerpt: as §1, §2
ADV and LMV were resuspended in sterile water, aliquoted, and frozen at −20° C. to avoid repeated freezing and thawing of the drug. Medium containing ADV or LMV were prepared daily as needed. In experiments in which ADV or LMV treatment was initiated […] transfection, Huh7 cells were exposed to the indicated concentration of ADV or LMV immediately after transfection with the HBV plasmid.
HBV core particles were isolated from the cytoplasmic fraction of Huh7 cells lysis buffer which includes 0.5% w/v NP-40. Cytoplasmic extracts were treated with DNAse, adjusted to 10 mmol/l […] and unprotected DNA was removed by an incubation to 500 µg/ml Proteinase K for 1.5 hours at 37° C. HBV DNA in the samples were then extracted using commercial DNA extraction kits such as Qiagen (DNA extraction) or in-house methods using sequential phenol and chloroform extractions, and the nucleic acids were recovered by ethanol precipitation. […] After southern blot analysis a BioRad Phosphoimager and the Quantity One Analysis software (BioRad, Hecules Calif.) was used to analyze suitable exposures of Southern blots. […]

| Structure (SMILES) | pIC50 [1] | pIC50 [2] | sensitivity of recombinant HBV to drug ([2]; recombinant HBV encoding the mutant rtS85A) |
| --- | --- | --- | --- |
| Nc1ncnc2c1ncn2CCOCP(=O)(O)O [ADV, adefovir] | 6.37 | 5.00 to 5.30 | reduced sensitivity |
| Nc1ccn([C@@H]2CS[C@H](CO)O2)c(=O)n1 [LMV, (−)-β-2′-deoxy-3′-thiacytidine] | 8.30 | 8.00 | – |
